# PubChem BioAssay (NCI)
#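 Results reflect a 48-hour exposure of cells in 96-well plates to compound at five concentrations. The concentration for 50% growth inhibition is given as GI50. TGI: total growth inhibition.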
# What was measured:
# Assay in all cases: DTP human tumour cell line panel, 48 h
# RPMI-8226 leukemia = tested on: RPMI-8226 leukemia
# EKVX NSCLC = tested on: EKVX NSCLC
# CCRF-CEM leukemia = tested on: CCRF-CEM leukemia
# UO-31 renal = tested on: UO-31 renal
# MCF7 breast = tested on: MCF7 breast
# NCI-H23 lung = tested on: NCI-H23 lung
# SR leukemia = tested on: SR leukemia
# A549 NSCLC = tested on: A549 NSCLC
# UACC-257 melanoma = tested on: UACC-257 melanoma
# SW-620 colon = tested on: SW-620 colon
# 786-0 renal = tested on: 786-0 renal
# U251 CNS = tested on: U251 CNS
# HS 578T breast = tested on: HS 578T breast
# OVCAR-5 ovarian = tested on: OVCAR-5 ovarian
# MDA-MB-435 = tested on: MDA-MB-435
# MDA-MB-231 breast = tested on: MDA-MB-231 breast
# NCI/ADR-RES ovarian = tested on: NCI/ADR-RES ovarian
# DU-145 prostate = tested on: DU-145 prostate
# SK-MEL-28 melanoma = tested on: SK-MEL-28 melanoma
# HOP-62 NSCLC = tested on: HOP-62 NSCLC
# M14 melanoma = tested on: M14 melanoma
# COLO 205 colon = tested on: COLO 205 colon
# OVCAR-4 ovarian = tested on: OVCAR-4 ovarian
# RXF 393 renal = tested on: RXF 393 renal
# IGROV1 ovarian = tested on: IGROV1 ovarian
# BT-549 breast = tested on: BT-549 breast
# OVCAR-3 ovarian = tested on: OVCAR-3 ovarian
# SF-539 CNS = tested on: SF-539 CNS
# KM12 colon = tested on: KM12 colon
# CAKI-1 renal = tested on: CAKI-1 renal
# HOP-92 NSCLC = tested on: HOP-92 NSCLC
# HCC-2998 colon = tested on: HCC-2998 colon
# SF-268 CNS = tested on: SF-268 CNS
# SN12C renal = tested on: SN12C renal
# MOLT-4 leukemia = tested on: MOLT-4 leukemia
# NCI-H226 lung = tested on: NCI-H226 lung
# MALME-3M melanoma = tested on: MALME-3M melanoma
# T-47D breast = tested on: T-47D breast
# ACHN renal = tested on: ACHN renal
# SK-MEL-5 melanoma = tested on: SK-MEL-5 melanoma
# SNB-75 CNS = tested on: SNB-75 CNS
# LOX IMVI melanoma = tested on: LOX IMVI melanoma
# K-562 leukemia = tested on: K-562 leukemia
# A498 renal = tested on: A498 renal
# NCI-H460 lung = tested on: NCI-H460 lung
# OVCAR-8 ovarian = tested on: OVCAR-8 ovarian
# SF-295 CNS = tested on: SF-295 CNS
# HCT-15 colon = tested on: HCT-15 colon
# SNB-19 CNS = tested on: SNB-19 CNS
# SK-OV-3 ovarian = tested on: SK-OV-3 ovarian
# NCI-H522 lung = tested on: NCI-H522 lung
# HT29 colon = tested on: HT29 colon
# UACC-62 melanoma = tested on: UACC-62 melanoma
# TK-10 renal = tested on: TK-10 renal
# HCT-116 colon = tested on: HCT-116 colon
# PC-3 prostate = tested on: PC-3 prostate
# SK-MEL-2 melanoma = tested on: SK-MEL-2 melanoma
smiles,measurement,setting,value
Cc1cc(C#Cc2ccc(C(C)(C)C)cc2)ccc1-n1c(/C=C/c2ccc(O)cc2O)nc2ccccc2c1=O,GI50,RPMI-8226 leukemia,3.1 µM
same,TGI,RPMI-8226 leukemia,26.9 µM
same,GI50,EKVX NSCLC,3.67 µM
same,TGI,EKVX NSCLC,16.2 µM
same,GI50,CCRF-CEM leukemia,3.85 µM
same,TGI,CCRF-CEM leukemia,> 100 µM
same,GI50,UO-31 renal,2.63 µM
same,TGI,UO-31 renal,15.5 µM
same,GI50,MCF7 breast,2.39 µM
same,TGI,MCF7 breast,9.06 µM
same,GI50,NCI-H23 lung,2.42 µM
same,TGI,NCI-H23 lung,6.8 µM
same,GI50,SR leukemia,2.45 µM
same,TGI,SR leukemia,6.49 µM
same,GI50,A549 NSCLC,2.83 µM
same,TGI,A549 NSCLC,11.1 µM
same,GI50,UACC-257 melanoma,6.92 µM
same,TGI,UACC-257 melanoma,20.4 µM
same,GI50,SW-620 colon,1.81 µM
same,TGI,SW-620 colon,3.71 µM
same,GI50,786-0 renal,5.08 µM
same,TGI,786-0 renal,17.9 µM
same,GI50,U251 CNS,2.11 µM
same,TGI,U251 CNS,6.03 µM
same,GI50,HS 578T breast,2.2 µM
same,TGI,HS 578T breast,5.87 µM
same,GI50,OVCAR-5 ovarian,4.25 µM
same,TGI,OVCAR-5 ovarian,16.4 µM
same,GI50,MDA-MB-435,3.08 µM
same,TGI,MDA-MB-435,12.3 µM
same,GI50,MDA-MB-231 breast,3.06 µM
same,TGI,MDA-MB-231 breast,9.59 µM
same,GI50,NCI/ADR-RES ovarian,3.17 µM
same,TGI,NCI/ADR-RES ovarian,13.4 µM
same,GI50,DU-145 prostate,3.42 µM
same,TGI,DU-145 prostate,13.3 µM
same,GI50,SK-MEL-28 melanoma,2.42 µM
same,TGI,SK-MEL-28 melanoma,7.27 µM
same,GI50,HOP-62 NSCLC,5.88 µM
same,TGI,HOP-62 NSCLC,20.5 µM
same,GI50,M14 melanoma,5.91 µM
same,TGI,M14 melanoma,25.6 µM
same,GI50,COLO 205 colon,3.02 µM
same,TGI,COLO 205 colon,9.59 µM
same,GI50,OVCAR-4 ovarian,3.15 µM
same,TGI,OVCAR-4 ovarian,14.7 µM
same,GI50,RXF 393 renal,1.88 µM
same,TGI,RXF 393 renal,4.46 µM
same,GI50,IGROV1 ovarian,7.48 µM
same,TGI,IGROV1 ovarian,26.8 µM
same,GI50,BT-549 breast,8.6 µM
same,TGI,BT-549 breast,33.1 µM
same,GI50,OVCAR-3 ovarian,3.23 µM
same,TGI,OVCAR-3 ovarian,12.5 µM
same,GI50,SF-539 CNS,4.37 µM
same,TGI,SF-539 CNS,16.5 µM
same,GI50,KM12 colon,3.33 µM
same,TGI,KM12 colon,10.8 µM
same,GI50,CAKI-1 renal,2.87 µM
same,TGI,CAKI-1 renal,16.2 µM
same,GI50,HOP-92 NSCLC,2.82 µM
same,TGI,HOP-92 NSCLC,8.31 µM
same,GI50,HCC-2998 colon,1.93 µM
same,TGI,HCC-2998 colon,3.85 µM
same,GI50,SF-268 CNS,4.82 µM
same,TGI,SF-268 CNS,18 µM
same,GI50,SN12C renal,1.88 µM
same,TGI,SN12C renal,4.13 µM
same,GI50,MOLT-4 leukemia,2.45 µM
same,TGI,MOLT-4 leukemia,10.2 µM
same,GI50,NCI-H226 lung,2.17 µM
same,TGI,NCI-H226 lung,8.25 µM
same,GI50,MALME-3M melanoma,8.42 µM
same,TGI,MALME-3M melanoma,23.2 µM
same,GI50,T-47D breast,3.85 µM
same,TGI,T-47D breast,24.4 µM
same,GI50,ACHN renal,3.26 µM
same,TGI,ACHN renal,13.4 µM
same,GI50,SK-MEL-5 melanoma,1.77 µM
same,TGI,SK-MEL-5 melanoma,3.98 µM
same,GI50,SNB-75 CNS,1.87 µM
same,TGI,SNB-75 CNS,16 µM
same,GI50,LOX IMVI melanoma,1.49 µM
same,TGI,LOX IMVI melanoma,2.87 µM
same,GI50,K-562 leukemia,3.28 µM
same,TGI,K-562 leukemia,14.1 µM
same,GI50,A498 renal,2.98 µM
same,TGI,A498 renal,11.4 µM
same,GI50,NCI-H460 lung,1.82 µM
same,TGI,NCI-H460 lung,3.75 µM
same,GI50,OVCAR-8 ovarian,3.55 µM
same,TGI,OVCAR-8 ovarian,12.5 µM
same,GI50,SF-295 CNS,3.83 µM
same,TGI,SF-295 CNS,16.5 µM
same,GI50,HCT-15 colon,2.74 µM
same,TGI,HCT-15 colon,10.2 µM
same,GI50,SNB-19 CNS,7.9 µM
same,TGI,SNB-19 CNS,22.5 µM
same,GI50,SK-OV-3 ovarian,10.9 µM
same,TGI,SK-OV-3 ovarian,30.6 µM
same,GI50,NCI-H522 lung,1.83 µM
same,TGI,NCI-H522 lung,5.5 µM
same,GI50,HT29 colon,2.08 µM
same,TGI,HT29 colon,5.27 µM
same,GI50,UACC-62 melanoma,3.52 µM
same,TGI,UACC-62 melanoma,13.5 µM
same,GI50,TK-10 renal,3.82 µM
same,TGI,TK-10 renal,12.8 µM
same,GI50,HCT-116 colon,2.89 µM
same,TGI,HCT-116 colon,10.8 µM
same,GI50,PC-3 prostate,3.67 µM
same,TGI,PC-3 prostate,16.2 µM
same,GI50,SK-MEL-2 melanoma,3.52 µM
same,TGI,SK-MEL-2 melanoma,13.4 µM
